Counter-ions that a name gives are not always drawn.

The first assay relates to platelet aggregation in response to collagen (human platelet-rich plasma). The assay is described as follows: Inhibition of collagen-induced platelet aggregation in vitro (human platelet-rich plasma, photometric aggregometer). It is filed as cell-based. The settings on record: 0.05 h, final concentration 100 μM, human PRP, 37°, 3 min incubation before collagen, just-maximal collagen dose, read-out: % Inhibition of the platelet aggregation response to collagen. As for the experimental part:
The compounds of the Examples above were tested for their ability to inhibit platelet aggregation in vitro as follows:
Platelet-rich-plasma (PRP) is prepared by centrifuging the anti-coagulated blood at 180 g., for 12 minutes, at room temperature. Collagen (3×-bovine achilles tendon) is suspended in 0.9% (w/v) saline, using a commercially available mixer emulsifier. PRP was mixed with 0.1 volumes saline (control) or compound dissolved in saline and incubated at 37° for 3 minutes, before the addition of collagen. Water-insoluble compounds were added to PRP, dissolved in 0.005 volumes dimethylformamide, the solvent being included in controls when appropriate. The final concentration of each compound was 100 μM.
The activity of each compound was expressed as percentage inhibition of the aggregation response to a dose of collagen producing a just-maximal change in light transmission in control PRP.
As usually defined, the inhibition is the percentage by which the read-out fell short of the control. For `CC1CCCCN1CCn1sc2ccccc2c1=O` (stereo not shown) [Example 27], the inhibition at 100 µM was 100%. The same measure, in the same setting: the value for `COc1cc2sn(CCN3CC4CCC(CC4)C3)c(=O)c2cc1OC` [Example 15, 5,6-dimethoxy-2-β-(3-azabicyclo[3.2.2]non-3-yl)ethyl 1,2-benzisothiazol-3-one] was 92%; that for `O=c1c2ccccc2sn1N1CCOCC1` [Example 5, 2-(morpholino)-1,2-benzisothiazol-3-one] was 100%; that for `O=c1c2ccccc2sn1CCN1CCCCCC1` [Example 19, 2-β-(homopiperidin-1-yl)ethyl-1,2-benzisothiazol-3-one hydrochloride] was 92%. The same measure, in the same setting: the figure for `O=c1c2ccccc2sn1CCCCCCN1CC2CCC(CC2)C1` [Example 2, 2-[6-(3-azabicyclo[3.2.2]non-3-yl)-hexyl]-1,2-benzisothiazlol-3-one hydrochloride] is 100%; for `O=c1c2ccc(Cl)cc2sn1CCc1ccccn1` [Example 11, 6-chloro-2-(β-2'-pyridylethyl)-1,2-benzisothiazol-3-one hydrochloride] it is 100%. Consider `O=c1c2ccccc2sn1CCN1CC2CCC(CC2)C1` [Example 13, 2-β-(3-azabicyclo[3.2.2]non-3-yl)ethyl-1,2-benzisothiazol-3-one hydrochloride], for which the inhibition at 100 µM was determined as 100%. Same read-out and setting: the value for `O=c1c2cc(Cl)c(Cl)cc2sn1CCN1CC2CCC(CC2)C1` [Example 14, 5,6-dichloro-2-β-(3-azabicyclo[3.2.2]non-3-yl)ethyl-1,2-benzisothiazol-3-one] was 100%; that for `O=c1c2cc(Cl)c(Cl)cc2sn1CCN1CCCC1` [Example 16, 5,6-dichloro-2-β-(1-pyrrolidinyl)ethyl-1,2-benzisothiazol-3-one] was 100%; that for `O=c1c2cc(Cl)ccc2sn1-c1ccccn1` [Example 6] was 100%.

Consider `O=c1c2cc(Cl)c(Cl)cc2sn1CCc1ccccn1` [Example 12], for which the inhibition at 100 µM stood at 100%. Still for that read-out and setting: the value for `COc1cc2sn(CCN3CCCC3)c(=O)c2cc1OC` [Example 18] was 91%; that for `O=c1c2ccccc2sn1CCc1ccccn1` [Example 9, 2-(β-2'-pyridylethyl)-1,2-benzisothiazol-3-one hydrochloride] was 100%; that for `O=c1c2ccccc2sn1CNc1ccccn1` [Example 4, 2-[2'-Pyridylaminomethyl]-1,2-benzisothiazol-3-one] was 100%. The same measure, in the same setting: the figure for `COc1cc2sn(CCc3ccccn3)c(=O)c2cc1OC` [Example 3, 5,6-Dimethoxy-2[β-(2-pyridyl)ethyl]-1,2-benzisothiazol-3-one] is 100%; for `Cc1ccc2sn(CCc3ccccn3)c(=O)c2c1` [Example 10, 5-methyl-2-(β-2'-pyridylethyl)-1,2-benzisothiazol-3-one hydrochloride] it is 100%. In the case of `O=c1c2cc(Cl)ccc2sn1-c1ncccn1` [Example 7], the inhibition at 100 µM is 100%. Still for that read-out and setting: the value for `O=c1c2ccccc2sn1CCn1sc2ccccc2c1=O` [Example 21, 1,2-bis(1,2-benzisothiazol-3-on-2-yl)ethane] was 91%; that for `O=c1c2ccccc2sn1CNc1ccncc1` [Example 23, 2-[4'-pyridylaminomethyl]-1,2-benzisothiazol-3-one] was 23%. On the same count and under the same terms, the value for `O=c1c2cc(Cl)ccc2sn1CCc1ccccn1` [Example 1, 5-Chloro-2[β-(2-pyridyl)ethyl]-1,2-benzisothiazol-3-one hydrochloride] was 100%; that for `O=c1c2ccccc2sn1CCN1CCc2ccccc2C1` [Example 20, 2-β-(N-tetrahydroisoquinolylethyl)-1,2-benzisothiazol-3-one hydrochloride] was 100%.

Staying with this assay, now noted: Homo sapiens, 0.05 h, read-out: % Inhibition of the platelet aggregation response to collagen.
For the compound `O=c1c2ccccc2sn1-c1nccs1` [Example 8, 2-(thiazol-2-yl)-1,2-benzisothiazol-3-one], the inhibition at 100 µM is 100%.

For the origin of these results see US4350702A, “Method of inhibiting platelet aggregation” (Beecham Group Limited, priority 1975, dated 1982).
